Test results reported in patent US20240252506A1 (Hoffmann-La Roche Inc., priority 2021, published 2024).
Values after ≈ are worked out from the molar mass of the structure shown.

Test system: Escherichia coli ATCC 25922
Assay: Minimal Inhibitory Concentration (MIC) determination, broth microdilution (CLSI M07-A10)
Format: cell-based
Details: lowest concentration for complete growth inhibition (no visible growth); for MIC: Escherichia coli, ATCC25922, strain Escherichia coli ATCC 25922, 18-24 hours at 35±2° C., read-out: Escherichia coli growth inhibition MIC; for Escherichia coli growth inhibition MIC: strain Escherichia coli ATCC 25922, 18-24 hours at 35±2° C.
How it was run: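 Broth microdilution per CLSI M07-A10; compounds in 2-fold serial dilutions; inoculum from 0.5 McFarland suspension diluted 1:200 in broth. Incubated 18-24 h at 35±2° C in ambient air; MIC (μg/mL) taken as lowest concentration giving no visible growth.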

SMILES | MIC [µg/mL] | Escherichia coli growth inhibition MIC [µg/mL]
N[C@@H](CO)c1nc2cc3c(c(F)c2o1)CC(CN1CCC2(CC1)CN(c1cnc4c(n1)NC(=O)CO4)C(=O)O2)C3 (stereo partly drawn) [Example 143, 6-[8-[[2-[(1S)-1-Amino-2-hydroxy-ethyl]-8-fluoro-6,7-dihydro-5H-cyclopenta[f][1,3]benzoxazol-6-yl]methyl]-2-oxo-1-oxa-3,8-diazaspiro[4.5]decan-3-yl]-4H-pyrazino[2,3-b][1,4]oxazin-3-one] | 0.25 (≈ 0.452 µM) | 
N[C@@H](CO)c1nc2cc3c(c(F)c2o1)CC(CN1CCC2(CC1)CN(c1cnc4c(n1)NC(=O)CO4)C(=O)O2)C3 (stereo partly drawn) [Example 144, 6-[8-[[2-[(1S)-1-Amino-2-hydroxy-ethyl]-8-fluoro-6,7-dihydro-5H-cyclopenta[f][1,3]benzoxazol-6-yl]methyl]-2-oxo-1-oxa-3,8-diazaspiro[4.5]decan-3-yl]-4H-pyrazino[2,3-b][1,4]oxazin-3-one] |  | 0.25
CN[C@@H](CO)c1nc2cc3c(c(F)c2o1)CC(CN1CCC2(CC1)CN(c1cnc4c(n1)NC(=O)CO4)C(=O)O2)C3 (stereo partly drawn) [Example 146, 6-[8-[[8-Fluoro-2-[(1S)-2-hydroxy-1-(methylamino)ethyl]-6,7-dihydro-5H-cyclopenta[f][1,3]benzoxazol-6-yl]methyl]-2-oxo-1-oxa-3,8-diazaspiro[4.5]decan-3-yl]-4H-pyrazino[2,3-b][1,4]oxazin-3-one] |  | 0.5
O=C1COc2ccc(N3CC4(CCN(CC5Cc6cc7nc([C@@H]8C[C@@H](O)CN8)oc7c(F)c6C5)CC4)OC3=O)nc2N1 (stereo partly drawn) [Example 147, 6-[8-[[8-Fluoro-2-[(2S,4R)-4-hydroxypyrrolidin-2-yl]-6,7-dihydro-5H-cyclopenta[f][1,3]benzoxazol-6-yl]methyl]-2-oxo-1-oxa-3,8-diazaspiro[4.5]decan-3-yl]-4H-pyrido[3,2-b][1,4]oxazin-3-one] | 0.5 (≈ 0.864 µM) | 
O=C1COc2ccc(N3CC4(CCN(CC5Cc6cc7nc([C@@H]8C[C@@H](O)CN8)oc7c(F)c6C5)CC4)OC3=O)nc2N1 (stereo partly drawn) [Example 148, 6-[8-[[8-Fluoro-2-[(2S,4R)-4-hydroxypyrrolidin-2-yl]-6,7-dihydro-5H-cyclopenta[f][1,3]benzoxazol-6-yl]methyl]-2-oxo-1-oxa-3,8-diazaspiro[4.5]decan-3-yl]-4H-pyrido[3,2-b][1,4]oxazin-3-one] |  | 1
C[C@H](C(=O)NCCn1nnc2c(F)c3c(c(F)c21)CC(CN1CCC2(CC1)CN(c1cnc4c(n1)NC(=O)CO4)C(=O)O2)C3)N(C)C (stereo partly drawn) [Example 149, (2R)—N-[2-[4,8-Difluoro-6-[[2-oxo-3-(3-oxo-4H-pyrazino[2,3-b][1,4]oxazin-6-yl)-1-oxa-3,8-diazaspiro[4.5]decan-8-yl]methyl]-6,7-dihydro-5H-cyclopenta[f]benzotriazol-1-yl]ethyl]-2-(dimethylamino)propanamide] | 1 (≈ 1.53 µM) | 
C[C@H](C(=O)NCCn1nc2c(F)c3c(c(F)c2n1)CC(CN1CCC2(CC1)CN(c1cnc4c(n1)NC(=O)CO4)C(=O)O2)C3)N(C)C [Example 150, (2R)-N[2-[4,8-difluoro-6-[[2-oxo-3-(3-oxo-4H-pyrazino[2,3-b][1,4]oxazin-6-yl)-1-oxa-3,8-diazaspiro[4.5]decan-8-yl]methyl]-6,7-dihydro-5H-cyclopenta[f]benzotriazol-2-yl]ethyl]-2-(dimethylamino)propanamide] | 1 (≈ 1.53 µM) | 
C[C@H](C(=O)NCc1nc2cc3c(c(F)c2[nH]1)CC(CN1CCC2(CC1)CN(c1cnc4c(n1)NC(=O)CO4)C(=O)O2)C3)N(C)C (some centres unmarked) [Example 151] | 0.5 (≈ 0.804 µM) | 
CC(=O)N(C)CCn1nc2c(F)c3c(c(F)c2n1)CC(CN1CCC2(CC1)CN(c1cnc4c(n1)NC(=O)CO4)C(=O)O2)C3 [Example 154, N-[2-[4,8-difluoro-6-[[2-oxo-3-(3-oxo-4H-pyrazino[2,3-b][1,4]oxazin-6-yl)-1-oxa-3,8-diazaspiro[4.5]decan-8-yl]methyl]-6,7-dihydro-5H-cyclopenta[f]benzotriazol-2-yl]ethyl]-N-methyl-acetamide] | 2 (≈ 3.27 µM) | 
CN(C)CC(=O)N(C)CCn1nc2c(F)c3c(c(F)c2n1)CC(CN1CCC2(CC1)CN(c1cnc4c(n1)NC(=O)CO4)C(=O)O2)C3 [Example 155, N-[2-[4,8-difluoro-6-[[2-oxo-3-(3-oxo-4H-pyrazino[2,3-b][1,4]oxazin-6-yl)-1-oxa-3,8-diazaspiro[4.5]decan-8-yl]methyl]-6,7-dihydro-5H-cyclopenta[f]benzotriazol-2-yl]ethyl]-2-(dimethylamino)-N-methyl-acetamide] | 1 (≈ 1.53 µM) | 
O=C1COc2ncc(N3CC4(CCN(CC5Cc6c(c(F)c7nn(CCNC(=O)[C@H]8CCCN8)nc7c6F)C5)CC4)OC3=O)nc2N1 [Example 158, (2R)—N-[2-[4,8-Difluoro-6-[[2-oxo-3-(3-oxo-4H-pyrazino[2,3-b][1,4]oxazin-6-yl)-1-oxa-3,8-diazaspiro[4.5]decan-8-yl]methyl]-6,7-dihydro-5H-cyclopenta[f]benzotriazol-2-yl]ethyl]pyrrolidine-2-carboxamide] | 0.25 (≈ 0.383 µM) | 
CNCC(=O)NCCn1nc2c(F)c3c(c(F)c2n1)CC(CN1CCC2(CC1)CN(c1cnc4c(n1)NC(=O)CO4)C(=O)O2)C3 [Example 159, N-[2-[4,8-difluoro-6-[[2-oxo-3-(3-oxo-4H-pyrazino[2,3-b][1,4]oxazin-6-yl)-1-oxa-3,8-diazaspiro[4.5]decan-8-yl]methyl]-6,7-dihydro-5H-cyclopenta[f]benzotriazol-2-yl]ethyl]-2-(methylamino)acetamide] | 0.25 (≈ 0.399 µM) | 
CNCC(=O)NCc1nc2cc3c(c(F)c2[nH]1)CC(CN1CCC2(CC1)CN(c1cnc4c(n1)NC(=O)CO4)C(=O)O2)C3.O=C(O)C(F)(F)F (centres unmarked) [Example 160, N-[[8-fluoro-6-[[2-oxo-3-(3-oxo-4H-pyrazino[2,3-b][1,4]oxazin-6-yl)-1-oxa-3,8-diazaspiro[4.5]decan-8-yl]methyl]-1,5,6,7-tetrahydrocyclopenta[f]benzimidazol-2-yl]methyl]-2-(methylamino)acetamide; 2,2,2-trifluoroacetic acid] | 0.5 | 
O=C(O)C(F)(F)F.O=C1COc2ncc(N3CC4(CCN(CC5Cc6cc7nc(CNC(=O)[C@H]8CCCN8)[nH]c7c(F)c6C5)CC4)OC3=O)nc2N1 (stereo partly drawn) [Example 161, (2R)-N-[[8-fluoro-6-[[2-oxo-3-(3-oxo-4H-pyrazino[2,3-b][1,4]oxazin-6-yl)-1-oxa-3,8-diazaspiro[4.5]decan-8-yl]methyl]-1,5,6,7-tetrahydrocyclopenta[f]benzimidazol-2-yl]methyl]pyrrolidine-2-carboxamide; 2,2,2-trifluoroacetic acid] | 0.25 | 
O=C1COc2ncc(N3CC4(CCN(CC5Cc6c(c(F)c7c(nnn7CCNC(=O)[C@H]7CCCN7)c6F)C5)CC4)OC3=O)nc2N1 (stereo partly drawn) [Example 162, (2R)-N-[2-[4,8-difluoro-6-[[2-oxo-3-(3-oxo-4H-pyrazino[2,3-b][1,4]oxazin-6-yl)-1-oxa-3,8-diazaspiro[4.5]decan-8-yl]methyl]-6,7-dihydro-5H-cyclopenta[f]benzotriazol-1-yl]ethyl]pyrrolidine-2-carboxamide] | 1 (≈ 1.53 µM) | 
O=C1COc2ncc(N3CC4(CCN(CC5Cc6c(c(F)c7nn(CCNC(=O)[C@H]8C[C@H](O)CN8)nc7c6F)C5)CC4)OC3=O)nc2N1 [Example 163, (2R,4S)-N-[2-[4,8-difluoro-6-[[2-oxo-3-(3-oxo-4H-pyrazino[2,3-b][1,4]oxazin-6-yl)-1-oxa-3,8-diazaspiro[4.5]decan-8-yl]methyl]-6,7-dihydro-5H-cyclopenta[f]benzotriazol-2-yl]ethyl]-4-hydroxy-pyrrolidine-2-carboxamide] | 0.5 (≈ 0.748 µM) | 
O=C1COc2ncc(N3CC4(CCN(CC5Cc6c(c(F)c7c(nnn7CCNC(=O)[C@H]7C[C@H](O)CN7)c6F)C5)CC4)OC3=O)nc2N1 (stereo partly drawn) [Example 164, (2R,4S)-N-[2-[4,8-difluoro-6-[[2-oxo-3-(3-oxo-4H-pyrazino[2,3-b][1,4]oxazin-6-yl)-1-oxa-3,8-diazaspiro[4.5]decan-8-yl]methyl]-6,7-dihydro-5H-cyclopenta[f]benzotriazol-1-yl]ethyl]-4-hydroxy-pyrrolidine-2-carboxamide] | 2 (≈ 2.99 µM) | 
CN(CCn1nc2c(F)c3c(c(F)c2n1)CC(CN1CCC2(CC1)CN(c1cnc4c(n1)NC(=O)CO4)C(=O)O2)C3)C(=O)CN.O=CO [Example 165, 2-Amino-N-[2-[4,8-difluoro-6-[[2-oxo-3-(3-oxo-4H-pyrazino[2,3-b][1,4]oxazin-6-yl)-1-oxa-3,8-diazaspiro[4.5]decan-8-yl]methyl]-6,7-dihydro-5H-cyclopenta[f]benzotriazol-2-yl]ethyl]-N-methyl-acetamide;formic acid] | 0.5 | 
CN(C)CC(=O)NCCn1nnc2c(F)c3c(c(F)c21)CC(CN1CCC2(CC1)CN(c1cnc4c(n1)NC(=O)CO4)C(=O)O2)C3 (centres unmarked) [Example 168, N-[2-[4,8-difluoro-6-[[2-oxo-3-(3-oxo-4H-pyrazino[2,3-b][1,4]oxazin-6-yl)-1-oxa-3,8-diazaspiro[4.5]decan-8-yl]methyl]-6,7-dihydro-5H-cyclopenta[f]benzotriazol-1-yl]ethyl]-2-(dimethylamino)acetamide] | 0.5 (≈ 0.78 µM) | 
CN[C@H](C)C(=O)NCc1nc2cc3c(c(F)c2o1)CC(CN1CCC2(CC1)CN(c1cnc4c(n1)NC(=O)CO4)C(=O)O2)C3 (stereo partly drawn) [Example 169, (2R)—N-[[8-Fluoro-6-[[2-oxo-3-(3-oxo-4H-pyrazino[2,3-b][1,4]oxazin-6-yl)-1-oxa-3,8-diazaspiro[4.5]decan-8-yl]methyl]-6,7-dihydro-5H-cyclopenta[f][1,3]benzoxazol-2-yl]methyl]-2-(methylamino)propanamide] | 1 (≈ 1.64 µM) | 
